In ChEMBL document CHEMBL4616702 (ACS Med Chem Lett, 2020):

What was measured:
[1] = Volume of distribution in steady state in rat at 2 mg/kg, iv; type: ADME, organism-based; conditions: in vivo, read-out: Vdss
Cytochrome P450 2C19 = Cytochrome P450 2C19 (Homo sapiens, UniProt P33261); test: Inhibition of recombinant CYP2C19 (unknown origin); type: ADME
[2] = Permeability across apical to basolateral side in human Caco2 cells; type: ADME, cell-based; conditions: Caco-2, read-out: permeability
[3] = Oral bioavailability in rat at 4 mg/kg; type: ADME, organism-based; conditions: in vivo
[4] = Oral bioavailability in mouse at 4 mg/kg; type: ADME, organism-based; conditions: in vivo
[5] = Half life in human liver microsomes in presence of NADPH by LC/MS/MS method; type: ADME, Microsome
[6] = Half life in mouse liver microsomes in presence of NADPH by LC/MS/MS method; type: ADME, Microsome; conditions: liver microsomes
[7] = Volume of distribution in steady state in dog at 1 mg/kg, iv; type: ADME, organism-based, Canis lupus familiaris; conditions: in vivo, read-out: Vdss
[8] = Cmax in Balb/c mouse at 10 mg/kg, po; type: ADME, organism-based; parameters: dose 10 mg/kg, route oral; conditions: in vivo
[9] = target: T1, Oxysterols receptor LXR-alpha (Homo sapiens, UniProt Q13133); test: Inverse agonist activity at LXRalpha (unknown origin)
T1 sequence (Q13133 whole entry): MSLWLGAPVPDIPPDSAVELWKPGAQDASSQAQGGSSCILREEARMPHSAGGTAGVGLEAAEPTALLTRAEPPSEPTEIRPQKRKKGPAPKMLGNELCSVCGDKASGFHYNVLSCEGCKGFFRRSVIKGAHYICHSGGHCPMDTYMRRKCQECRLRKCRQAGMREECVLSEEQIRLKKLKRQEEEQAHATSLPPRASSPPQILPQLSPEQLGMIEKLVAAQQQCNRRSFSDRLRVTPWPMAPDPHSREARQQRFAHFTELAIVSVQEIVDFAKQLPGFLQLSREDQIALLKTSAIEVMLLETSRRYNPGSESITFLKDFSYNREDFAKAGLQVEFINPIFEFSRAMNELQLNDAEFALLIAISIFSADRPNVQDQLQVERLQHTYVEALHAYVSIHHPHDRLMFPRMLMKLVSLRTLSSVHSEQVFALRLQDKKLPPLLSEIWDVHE

[10] = target: T2, Nuclear receptor ROR-alpha (Homo sapiens, UniProt P35398); test: Inverse agonist activity at Gal4-fused RORalpha (unknown origin)
T2 sequence (P35398 whole entry): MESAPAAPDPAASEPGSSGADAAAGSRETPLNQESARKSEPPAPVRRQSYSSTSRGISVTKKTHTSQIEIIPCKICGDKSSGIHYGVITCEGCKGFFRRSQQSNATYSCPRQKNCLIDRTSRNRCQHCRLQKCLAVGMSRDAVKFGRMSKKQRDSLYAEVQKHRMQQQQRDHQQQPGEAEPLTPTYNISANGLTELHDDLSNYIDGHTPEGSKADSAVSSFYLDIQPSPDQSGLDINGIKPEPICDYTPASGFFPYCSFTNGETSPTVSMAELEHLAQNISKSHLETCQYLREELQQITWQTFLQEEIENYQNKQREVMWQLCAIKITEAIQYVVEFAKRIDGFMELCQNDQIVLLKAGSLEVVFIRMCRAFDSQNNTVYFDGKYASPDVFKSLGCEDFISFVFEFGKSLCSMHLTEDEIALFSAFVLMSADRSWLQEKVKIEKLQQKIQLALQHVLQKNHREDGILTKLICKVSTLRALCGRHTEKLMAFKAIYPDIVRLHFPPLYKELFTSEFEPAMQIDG

[11] = Half life in rat at 2 mg/kg, iv; type: ADME, organism-based; conditions: in vivo
[12] = AUC (0 to 24 hrs) in rat at 4 mg/kg, po; type: ADME, organism-based; parameters: time < 24 hr, dose 4 mg/kg, route oral; conditions: in vivo
Cytochrome P450 3A4 = Cytochrome P450 3A4 (Homo sapiens, UniProt P08684); test: Inhibition of recombinant CYP3A4 (unknown origin); type: ADME
Cytochrome P450 3A4, sequence (P08684 whole entry): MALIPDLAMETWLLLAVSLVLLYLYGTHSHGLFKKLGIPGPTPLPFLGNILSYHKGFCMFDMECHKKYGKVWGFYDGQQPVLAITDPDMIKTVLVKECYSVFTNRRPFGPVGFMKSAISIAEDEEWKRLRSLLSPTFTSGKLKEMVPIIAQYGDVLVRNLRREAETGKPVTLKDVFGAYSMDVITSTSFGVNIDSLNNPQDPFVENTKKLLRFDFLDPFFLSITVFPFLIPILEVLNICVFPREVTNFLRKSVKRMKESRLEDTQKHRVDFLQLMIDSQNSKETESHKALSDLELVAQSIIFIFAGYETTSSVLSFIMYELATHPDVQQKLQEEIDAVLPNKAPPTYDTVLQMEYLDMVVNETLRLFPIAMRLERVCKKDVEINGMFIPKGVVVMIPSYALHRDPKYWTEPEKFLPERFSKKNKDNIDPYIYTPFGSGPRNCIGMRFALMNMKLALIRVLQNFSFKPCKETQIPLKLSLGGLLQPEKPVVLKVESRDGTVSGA

[13] = Half life in mouse at 2 mg/kg, iv; type: ADME, organism-based; conditions: in vivo
[14] = Volume of distribution in steady state in mouse at 2 mg/kg, iv; type: ADME, organism-based; conditions: in vivo, read-out: Vdss
[15] = target: T3, Oxysterols receptor LXR-beta (Homo sapiens, UniProt P55055); test: Inverse agonist activity at LXRbeta (unknown origin)
T3 sequence (P55055 whole entry): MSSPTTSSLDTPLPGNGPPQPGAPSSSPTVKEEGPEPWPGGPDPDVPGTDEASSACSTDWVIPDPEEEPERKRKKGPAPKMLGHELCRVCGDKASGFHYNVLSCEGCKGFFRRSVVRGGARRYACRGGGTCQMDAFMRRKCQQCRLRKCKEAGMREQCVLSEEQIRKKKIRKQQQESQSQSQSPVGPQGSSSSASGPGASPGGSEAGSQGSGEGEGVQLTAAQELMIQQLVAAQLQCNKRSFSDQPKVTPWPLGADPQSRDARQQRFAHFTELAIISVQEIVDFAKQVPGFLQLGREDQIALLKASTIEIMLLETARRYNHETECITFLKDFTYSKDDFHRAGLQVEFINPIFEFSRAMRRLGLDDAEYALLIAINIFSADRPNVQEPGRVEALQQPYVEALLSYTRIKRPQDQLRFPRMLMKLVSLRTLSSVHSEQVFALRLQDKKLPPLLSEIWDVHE

[16] = target: T4, Nuclear receptor ROR-beta (Homo sapiens, UniProt Q92753); test: Inverse agonist activity at Gal4-fused RORbeta (unknown origin)
T4 sequence (Q92753 whole entry): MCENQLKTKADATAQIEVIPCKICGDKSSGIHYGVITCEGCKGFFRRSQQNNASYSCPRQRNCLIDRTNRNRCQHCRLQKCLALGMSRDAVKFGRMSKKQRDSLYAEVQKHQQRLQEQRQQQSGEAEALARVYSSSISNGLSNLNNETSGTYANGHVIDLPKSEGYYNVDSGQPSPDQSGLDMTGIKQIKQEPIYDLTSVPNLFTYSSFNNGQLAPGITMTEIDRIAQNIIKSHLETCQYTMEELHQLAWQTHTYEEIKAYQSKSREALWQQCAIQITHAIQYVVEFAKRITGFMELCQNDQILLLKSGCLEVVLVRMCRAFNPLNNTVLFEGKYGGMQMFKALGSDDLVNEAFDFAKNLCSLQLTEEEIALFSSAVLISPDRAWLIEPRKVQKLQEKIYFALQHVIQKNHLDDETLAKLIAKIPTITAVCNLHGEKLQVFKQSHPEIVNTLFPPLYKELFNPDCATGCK

[17] = Cmax in mouse at 4 mg/kg, po; type: ADME, organism-based; parameters: dose 4 mg/kg, route oral; conditions: in vivo

Cytochrome P450 2C19, sequence (P33261 whole entry): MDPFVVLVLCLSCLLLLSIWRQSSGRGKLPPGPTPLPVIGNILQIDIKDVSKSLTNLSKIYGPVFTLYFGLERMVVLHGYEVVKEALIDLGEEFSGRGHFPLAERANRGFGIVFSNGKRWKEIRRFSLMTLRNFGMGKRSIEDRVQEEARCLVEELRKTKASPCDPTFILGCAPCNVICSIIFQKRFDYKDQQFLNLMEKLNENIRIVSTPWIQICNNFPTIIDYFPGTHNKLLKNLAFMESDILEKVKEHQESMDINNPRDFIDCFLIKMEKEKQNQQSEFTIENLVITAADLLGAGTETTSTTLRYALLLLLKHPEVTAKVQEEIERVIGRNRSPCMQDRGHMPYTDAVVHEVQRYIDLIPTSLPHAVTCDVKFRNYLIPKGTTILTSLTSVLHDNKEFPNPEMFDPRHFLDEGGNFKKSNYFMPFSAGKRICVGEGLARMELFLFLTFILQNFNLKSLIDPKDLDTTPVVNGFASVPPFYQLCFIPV

For `C[C@H]1C[C@H](C(=O)O)CC[C@H]1C(=O)N1CC[C@@]2(S(=O)(=O)c3ccc(F)cc3)c3ccc(C(F)(C(F)(F)F)C(F)(F)F)cc3CC[C@@H]12` [BMS-986251], the Vd [1] was 1.2 L/kg, the IC50 (Cytochrome P450 2C19) was > 20 µM and the Papp A→B [2] was 24 ×10⁻⁶ cm/s. The bioavailability [3] was 94%, the bioavailability [4] was 100% and the half-life [5] was > 2 h. The half-life [6] was > 2 h, the Vd [7] was 0.5 L/kg and the Cmax [8] was 11 µM. For the same molecule, the EC50 [9] was > 7.5 µM, the EC50 [10] was > 10 µM and the half-life [11] was 11 h. For the same molecule, the AUC(0-t) at 24 h [12] was 64 µM·h, the IC50 (Cytochrome P450 3A4) was > 20 µM and the half-life [13] was 7.7 h. For the same molecule, the Vd [14] was 1.9 L/kg, the EC50 [15] was > 7.5 µM and the EC50 [16] was > 10 µM. It also gave a Cmax [17] of 4.8 µM.
